For six compounds, IC50, Activity and Ka results are on record in ChEMBL document CHEMBL1140885, “Novel naphthalimide-amino acid conjugates with flexible leucine moiety as side chain: design, synthesis and potential antitumor activity” (Bioorg Med Chem, 2009).

Where only a bound is given, the exact number is not on record here.

The subject of one data set is A549. The data set is described as follows: Cytotoxicity against human A549 cells after 72 hrs by SRB assay. The data set is classed as functional, cell-based. Particulars: A549, 72 h; call rule not given here.
The next data set has as its system HL-60. Briefly: Cytotoxicity against human HL60 cells after 48 hrs by MTT assay. The format is functional, cell-based. Particulars: HL-60, 48 h.
The next data set deals with Albumin (Bos taurus, UniProt P02769). The data set is described as follows: Binding affinity to bovine serum albumin at 10 uM after 15 mins by spectrophotometric titration. The format is ADME. Particulars: cattle, isolated protein, 0.25 h.
The subject of the next data set is A-375. The data set is described as follows: Cytotoxicity against human A375 cells after 48 hrs by MTT assay. The format is functional, cell-based. Particulars: A-375, 48 h.
The test system of a further data set is MCF7. Briefly: Cytotoxicity against human MCF7 cells after 48 hrs by MTT assay. The format is functional, cell-based. Particulars: MCF7, 48 h.
Another data set concerns HeLa. Briefly: Cytotoxicity against human HeLa cells after 48 hrs by MTT assay. The data set is classed as functional, cell-based.
For the next data set, the system named is HCT-8. The data set is described as follows: Cytotoxicity against human HCT8 cells after 48 hrs by MTT assay. The data set is classed as functional, cell-based. Particulars: HCT-8, 48 h.
The next data set concerns P388. Briefly: Cytotoxicity against mouse P388 cells after 48 hrs by MTT assay. The format is functional, cell-based. Particulars: P388, 48 h.
The subject of data set [1] is DNA. Briefly: Binding affinity to calf thymys DNA assessed as increase in viscosity. Particulars: Bos taurus. The data set is classed as nucleic-acid assay.
The subject of data set [2] is DNA. The data set is described as follows: Binding affinity to calf thymus DNA by fluorescence titration. The format is nucleic-acid assay. Particulars: Bos taurus.

Albumin, sequence (P02769 whole entry): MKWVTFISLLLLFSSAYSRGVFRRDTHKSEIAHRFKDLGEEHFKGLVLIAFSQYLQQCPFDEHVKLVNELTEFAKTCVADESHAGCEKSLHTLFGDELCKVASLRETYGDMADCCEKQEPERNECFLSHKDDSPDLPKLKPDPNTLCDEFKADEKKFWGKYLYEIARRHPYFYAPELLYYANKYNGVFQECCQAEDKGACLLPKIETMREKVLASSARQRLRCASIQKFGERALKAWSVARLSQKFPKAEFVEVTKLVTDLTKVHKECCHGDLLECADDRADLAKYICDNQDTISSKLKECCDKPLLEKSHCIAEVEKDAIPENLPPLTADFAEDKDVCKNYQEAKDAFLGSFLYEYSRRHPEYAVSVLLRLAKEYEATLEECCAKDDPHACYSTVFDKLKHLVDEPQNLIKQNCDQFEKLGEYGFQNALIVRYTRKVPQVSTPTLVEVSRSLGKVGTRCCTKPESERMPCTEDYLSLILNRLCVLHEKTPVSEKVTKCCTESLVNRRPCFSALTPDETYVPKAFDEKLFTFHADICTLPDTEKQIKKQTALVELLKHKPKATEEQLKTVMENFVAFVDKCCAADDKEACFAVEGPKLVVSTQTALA

`CC(C)C[C@@H](C(=O)Nc1ccc(S(N)(=O)=O)cc1)N1C(=O)c2cccc3c(NCCSc4ccccc4)ccc(c23)C1=O`: the half-inhibitory concentration (IC50) is above 50 µM in the data set with A549; above 50 µM with HL-60; above 50 µM in the data set with A-375; 12.6 µM with MCF7; above 50 µM in the data set on HeLa; above 50 µM with HCT-8. For the same compound, the half-maximal inhibitory concentration (IC50) in the data set with P388 was above 50 µM. Besides, at Albumin, the outcome was Active.

With `CC(C)C[C@@H](C(=O)Nc1ccc(S(=O)(=O)c2ccc(N)cc2)cc1)N1C(=O)c2cccc3c(NCCSc4ccccc4)ccc(c23)C1=O`, the IC50 in the data set with A549 is above 50 µM; in the data set on HL-60 it was above 50 µM; in the data set with A-375 it was above 50 µM; in the data set on MCF7, 24.6 µM; in the data set with HeLa it was above 50 µM; with HCT-8 it was above 50 µM. The IC50 with P388 is above 50 µM. The outcome at Albumin was Active.

As for `CC(C)C[C@@H](C(=O)Nc1ccc(S(=O)(=O)c2ccc(N)cc2)cc1)N1C(=O)c2cccc3c(NCCN(C)C)ccc(c23)C1=O`, the IC50 with A549 was 17.2 µM; in the data set on HL-60 it was above 50 µM; in the data set on A-375 it was above 50 µM; in the data set with MCF7, 8.64 µM; in the data set with HeLa it was above 50 µM; in the data set with HCT-8 it was above 50 µM. The same compound yielded an IC50 in the data set with P388 above 50 µM.

Take `COc1cc(-c2ccc(NC(=O)[C@H](CC(C)C)N3C(=O)c4cccc5c(NCCN(C)C)ccc(c45)C3=O)c(OC)c2)ccc1N`: the IC50 is 25.1 µM in the data set with A549; 22.8 µM with HL-60; 6.51 µM in the data set on A-375; 15 µM in the data set on MCF7; 6.74 µM in the data set with HeLa; above 50 µM in the data set with HCT-8. The IC50 with P388 stood at 7.67 µM.

`CC(C)C[C@@H](C(=O)Nc1ccc(S(N)(=O)=O)cc1)N1C(=O)c2cccc3c(NCCN(C)C)ccc(c23)C1=O`: the Activity entry in the data set on DNA [1] was “Dose-dependent effect”. Further, the IC50 in the data set with A549 is above 50 µM; in the data set on HL-60, 17.8 µM; in the data set with A-375, 6.6 µM; with MCF7, 8.65 µM; with HeLa it was 8.09 µM; in the data set on HCT-8, above 50 µM. The same compound had a concentration for half-maximal inhibition (IC50) in the data set on P388 of 7.23 µM. In addition, the Ka with DNA [2] worked out at 4.92 ×10⁴ /M.

For the compound `COc1cc(-c2ccc(NC(=O)[C@H](CC(C)C)N3C(=O)c4cccc5c(NCCSc6ccccc6)ccc(c45)C3=O)c(OC)c2)ccc1N`, the IC50 in the data set on A549 was above 50 µM; in the data set with HL-60 it was above 50 µM; with A-375, above 50 µM; with MCF7, 9.45 µM; in the data set with HeLa it was above 50 µM; with HCT-8 it was above 50 µM. In the data set on P388, the half-inhibitory concentration (IC50) is above 50 µM. Also, the outcome at Albumin was Active.
